Data reported in ChEMBL document CHEMBL1129789, “Dopamine D3 and D4 receptor antagonists: synthesis and structure--activity relationships of (S)-(+)-N-(1-Benzyl-3-pyrrolidinyl)-5-chloro-4- [(cyclopropylcarbonyl) amino]-2-methoxybenzamide (YM-43611) and related compounds” (J Med Chem, 1996).

Biological target: D(3) dopamine receptor (Rattus norvegicus, UniProt P19020)
Experiment: biochemical
Description: Binding affinity to rat Dopamine receptor D3 expressed in CHO cells was determined using [125 I] iodosulpride as radioligand

D(3) dopamine receptor, sequence (P19020 whole entry): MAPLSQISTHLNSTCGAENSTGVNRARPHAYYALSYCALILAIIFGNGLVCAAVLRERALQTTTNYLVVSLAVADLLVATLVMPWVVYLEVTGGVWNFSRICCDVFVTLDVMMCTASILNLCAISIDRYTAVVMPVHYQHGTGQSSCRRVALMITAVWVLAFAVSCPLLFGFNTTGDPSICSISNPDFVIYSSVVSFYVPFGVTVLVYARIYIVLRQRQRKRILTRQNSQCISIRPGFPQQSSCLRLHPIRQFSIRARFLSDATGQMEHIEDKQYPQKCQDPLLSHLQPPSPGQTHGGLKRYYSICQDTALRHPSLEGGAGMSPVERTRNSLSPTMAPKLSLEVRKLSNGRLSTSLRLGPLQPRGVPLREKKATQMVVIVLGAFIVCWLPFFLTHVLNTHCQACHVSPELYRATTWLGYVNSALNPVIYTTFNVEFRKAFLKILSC

- Ki: 0.021 µM
SMILES: COc1cc(NC(=O)C2CC2)c(Cl)cc1C(=O)N[C@H]1CCN(Cc2ccccc2)C1
